Publication PMC5484485, “In vitro and in vivo effects of kisspeptin antagonists p234, p271, p354, and p356 on GPR54 activation” (PLoS ONE, 2017)
Square brackets hold non-standard residues; d marks the D form. Ends that are not written are not given here.

Experiments:
CHEM1-GPR54 cells = biological target: T1, CHEM1-GPR54 cells (Homo sapiens, UniProt Q969F8); experiment: Preliminary calcium flux assay with adherent CHEM1-GPR54 cells (unpublished); type: cell-based; settings: too few repeats for statistics
T1 construct: host or cells: rat hematopoietic CHEM1 cells expressing endogenous Galpha15
T1 sequence (Q969F8 whole entry): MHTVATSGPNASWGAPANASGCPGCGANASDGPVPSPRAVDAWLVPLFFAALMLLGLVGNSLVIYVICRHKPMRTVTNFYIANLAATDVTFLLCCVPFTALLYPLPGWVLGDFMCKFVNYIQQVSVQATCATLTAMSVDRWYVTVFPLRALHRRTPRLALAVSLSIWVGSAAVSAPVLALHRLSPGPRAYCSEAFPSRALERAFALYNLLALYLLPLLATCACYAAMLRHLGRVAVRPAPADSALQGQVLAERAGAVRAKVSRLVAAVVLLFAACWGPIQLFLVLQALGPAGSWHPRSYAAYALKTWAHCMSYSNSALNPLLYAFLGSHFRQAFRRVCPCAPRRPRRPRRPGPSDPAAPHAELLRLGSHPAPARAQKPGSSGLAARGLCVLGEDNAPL

plasma LH concentration [1] = experiment: Other studies with p271 up to 600 μg/kg/h in castrated male dogs and anestrous bitches (unpublished); type: in vivo, dog; settings: doses of up to 600 μg/kg/h, unpublished data
Procedure: These doses also had no effect on plasma LH concentration in the castrated male dogs or on the KP10-induced LH response in the female dogs (unpublished data). It is therefore unlikely that the lack of antagonistic effects is related to the dose of 50 μg/kg/h used in the present study.

plasma LH concentration [2] = settings: bitches; anestrus, follicular phase, two stages of luteal phase; cited from earlier work
From the text: Sensitivity to exogenous KP10 differs according to the stage of the reproductive cycle, as has been shown in rats, ewes, bitches, and women. In the bitch, the highest KP10-induced LH response was obtained during anestrus and the lowest was during the follicular phase. It is possible that the effects of a KP antagonist also differ among the cycle stages.

circulating LH / puberty = settings: cited from earlier work
Procedure: The development of kisspeptin antagonists contributed to an improved understanding of the role of kisspeptin in the reproductive system. Roseweir et al. developed several KP10 analogues and tested their effect on inositol phosphate (IP) release in Chinese hamster ovarian (CHO) cells stably expressing the human GPR54. […] The kisspeptin antagonists were administered intravenously in a dose of 50 μg/kg/h, and had no effect on either the basal plasma LH concentration during the continuous administration or on the KP10-induced LH response. These findings are in line with a previous study in female dogs. […] Adult male rats received an intrape ...

LH pulses = settings: intact and ovariectomized ewes; continuous intracerebroventricular; cited from earlier work
human GPR54 = human GPR54 (Homo sapiens, UniProt Q969F8); experiment: Flow cytometric calcium flux assay, KP10-induced response after 15 min pre-incubation with antagonist; type: cell-based; parameters: host or cells: rat hematopoietic CHEM1 cells expressing endogenous Galpha15; settings: all concentrations 10^-13 to 10^-5 M; 10^-8 M KP10; 15 min pre-incubation; P = 1.00
human GPR54, sequence (Q969F8 whole entry): as above
Procedure: In vitro analyses of the effects of kisspeptin and kisspeptin antagonists, were performed using HT[…] cells (rat hematopoietic CHEM1 cells expressing endogenous Gα15 and, stably expressing the human GPR54 receptor (Millipore BV, the Netherlands), CHEM1-GPR54. Cells were counted and suspended in HBSS+++ at a concentration of 5*10^6 cells/ml. To load the cells with the fluorescent dye ester they were incubated in HBSS+++ adjusted to a concentration of 2 μM Fluo-3 AM (Molecular Probes, Life Technologies, the Netherlands) for 1h at 37°C under agitation in the dark. After incubation, the cells were washed by adding HBSS+++ to a volume of 10 ml followed by centrifugation (5 min, 150 x g) to remove excess of Fluo-3AM. […] Thereafter the tube was removed briefly and 25 μl peptide (see below) was added, after which aspiration and analysis continued. For statistical analyses fluorescent data recorded during the time interval 30-60 seconds after initiation of measurement were used. […] We then assessed whether these antagonists could compete with KP10 for its receptor. […] For this purpose 25 μl quantities of the antagonists were added to 200 μl of Fluo-3 AM labelled cells (10^6 cells/ml) and incubated for 15 min. […] Peptides p354 and p356 were tested three times with both human and canine KP10; while peptides p234 and p271 were tested three times with human KP10 and once with canine KP10. To analyze the effects of different concentrations of the KP antagonists on the calcium response due to KP10 addition, the differences in fluorescence before and after KP10 were calculated (the calcium response). The calcium response ratios were calculated as the calcium response of the CHEM1-GPR54 cells pre-incubated with different concentrations of KP antagonist and the control (the calcium response of the cells without KP antagonist). These calcium response ratios were log transformed and used for further analysis by univariate analysis of variance, with the Dunnett's test as post hoc test. The calcium response ratios were set as dependent variables and the different concentrations of the antagonists and the two types of KP10 were used as fixed factors. The residuals were normally distributed.

[3] = adult male rats, 5 nmol ip every hour for three hours

**Q.** With “RRMKWKKY[dA]NWNGFG[dW]RF-NH2 [p271, p234 with a penetratin tag]” as the substance, how does the “inhibition of KP10-induced calcium response, adherent cells” value (CHEM1-GPR54 cells) read?
**A.** could not be inhibited

**Q.** What about the “effect on KP10-induced LH response in female dogs” value (plasma LH concentration [1]; anestrous bitches) of the same substance?
**A.** had no effect

**Q.** And the “effect on plasma LH concentration in castrated male dogs” value (plasma LH concentration [1])?
**A.** had no effect

**Q.** What about the “effect on basal plasma LH concentration, different stages of estrous cycle” value (plasma LH concentration [2]) of the same substance?
**A.** did not result in a decrease

**Q.** And the “KP10-induced LH response, KP10 intracerebroventricular” value (circulating LH / puberty; [3])?
**A.** blunted

**Q.** What about the “KP10-induced LH response, KP10 intraperitoneal” value (circulating LH / puberty; [3]) of the same substance?
**A.** absent

**Q.** What about the “effect on post-castration rise in circulating LH” value (circulating LH / puberty; male rats, repeated peripheral administration) of the same substance?
**A.** could prevent the post-castration rise in circulating LH

**Q.** What about the “effect on KP10-induced rise in plasma LH” value (circulating LH / puberty; mice and rats, repeated peripheral administration) of the same substance?
**A.** blunted the KP10-induced rise in plasma LH concentration

**Q.** What about the “effect on LH pulses” value (LH pulses) of the same substance?
**A.** inhibited LH pulses

**Q.** What about the “difference in calcium response ratio between controls and antagonist” value (human GPR54) of the same substance?
**A.** not significant
